From a compilation of properties of binary mixtures (doi:10.1016/j.molliq.2021.115373)

Experiment: xn = mol fraction of the nth substance listed
Details: 101 kPa

CC[N+](C)(CC)CCOC.O=S(=O)([N-]S(=O)(=O)C(F)(F)F)C(F)(F)F + O=C1CCCO1
Details | electrical conductivity [S/m] | viscosity [mPa·s]
288.15 K, x1 = 0.3003 | 0.818 | 14.42
288.15 K, x1 = 0.4007 | 0.638 | 21.86
288.15 K, x1 = 0.6999 | 0.342 | 87.8
288.15 K, x1 = 0.8001 | 0.271 | 118.2
288.15 K, x1 = 0.9003 | 0.189 | 159.3
288.15 K, x1 = 1 | 0.147 | 225
293.15 K, x1 = 0.2006 | 1.16 | 7.44
293.15 K, x1 = 0.4007 | 0.737 | 18.34
293.15 K, x1 = 0.6002 | 0.508 | 49.4
293.15 K, x1 = 0.6999 | 0.429 | 67.7
293.15 K, x1 = 0.8001 | 0.336 | 90
293.15 K, x1 = 0.9003 | 0.246 | 118.6
298.15 K, x1 = 0.2006 | 1.29 | 6.32
298.15 K, x1 = 0.3003 | 1.03 | 10.43
298.15 K, x1 = 0.4998 | 0.688 | 24.17
298.15 K, x1 = 0.6002 | 0.595 | 37.96
298.15 K, x1 = 0.6999 | 0.504 | 51.5
298.15 K, x1 = 0.8001 | 0.413 | 68.2
298.15 K, x1 = 0.9003 | 0.31 | 88.5
298.15 K, x1 = 1 | 0.24 | 119.2
303.15 K, x1 = 0.1004 | 1.41 | 2.972
303.15 K, x1 = 0.2006 | 1.45 | 5.4
303.15 K, x1 = 0.3003 | 1.16 | 8.87
303.15 K, x1 = 0.4007 | 0.956 | 12.54
303.15 K, x1 = 0.4998 | 0.791 | 19.36
303.15 K, x1 = 0.6002 | 0.688 | 29.46
303.15 K, x1 = 0.8001 | 0.488 | 51.5
303.15 K, x1 = 0.9003 | 0.382 | 67.4
308.15 K, x1 = 0.1004 | 1.52 | 2.401
308.15 K, x1 = 0.2006 | 1.59 | 4.634
308.15 K, x1 = 0.6002 | 0.786 | 23.31
308.15 K, x1 = 0.6999 | 0.693 | 30.64
308.15 K, x1 = 0.8001 | 0.576 | 39.71
308.15 K, x1 = 1 | 0.365 | 67.7
313.15 K, x1 = 0.3003 | 1.43 | 6.47
313.15 K, x1 = 0.4007 | 1.21 | 8.94
313.15 K, x1 = 0.4998 | 1.02 | 12.56
313.15 K, x1 = 0.6002 | 0.898 | 18.36
313.15 K, x1 = 0.6999 | 0.805 | 24.16
313.15 K, x1 = 0.9003 | 0.545 | 39.51
313.15 K, x1 = 1 | 0.44 | 53
318.15 K, x1 = 0.1004 | 1.77 | 1.55
318.15 K, x1 = 0.2006 | 1.92 | 3.357
318.15 K, x1 = 0.3003 | 1.57 | 5.5
318.15 K, x1 = 0.4007 | 1.35 | 7.5
318.15 K, x1 = 0.4998 | 1.15 | 10.47
318.15 K, x1 = 0.6999 | 0.916 | 19.03
318.15 K, x1 = 0.8001 | 0.782 | 24.04
318.15 K, x1 = 0.9003 | 0.645 | 30.79
318.15 K, x1 = 1 | 0.521 | 40.98
323.15 K, x1 = 0.1004 | 1.89 | 1.264
323.15 K, x1 = 0.3003 | 1.72 | 4.76
323.15 K, x1 = 0.6999 | 1.03 | 14.91
323.15 K, x1 = 0.8001 | 0.888 | 18.65
323.15 K, x1 = 0.9003 | 0.739 | 24.72
323.15 K, x1 = 1 | 0.609 | 33.06
328.15 K, x1 = 0.1004 | 2.02 | 1.025
328.15 K, x1 = 0.2006 | 2.22 | 2.567
328.15 K, x1 = 0.3003 | 1.88 | 4.154
328.15 K, x1 = 0.4007 | 1.64 | 5.51
328.15 K, x1 = 0.4998 | 1.44 | 7.25
328.15 K, x1 = 0.6999 | 1.15 | 11.99
328.15 K, x1 = 0.8001 | 1 | 14.94
328.15 K, x1 = 0.9003 | 0.844 | 19.43
333.15 K, x1 = 0.1004 | 2.15 | 0.838
333.15 K, x1 = 0.2006 | 2.38 | 2.237
333.15 K, x1 = 0.3003 | 2.07 | 3.578
333.15 K, x1 = 0.4998 | 1.59 | 6.07
333.15 K, x1 = 0.6002 | 1.42 | 7.65
333.15 K, x1 = 0.6999 | 1.29 | 9.72
333.15 K, x1 = 0.8001 | 1.12 | 11.69
333.15 K, x1 = 0.9003 | 0.956 | 16.5
338.15 K, x1 = 0.1004 | 2.27 | 0.686
338.15 K, x1 = 0.2006 | 2.56 | 1.957
338.15 K, x1 = 0.3003 | 2.24 | 3.117
338.15 K, x1 = 0.4007 | 1.99 | 4.059
338.15 K, x1 = 0.4998 | 1.75 | 5.21
338.15 K, x1 = 0.6002 | 1.56 | 6.3
338.15 K, x1 = 0.6999 | 1.41 | 7.76
338.15 K, x1 = 0.8001 | 1.24 | 9.36
338.15 K, x1 = 0.9003 | 1.07 | 13.36
338.15 K, x1 = 1 | 0.935 | 17.49
343.15 K, x1 = 0.1004 | 2.41 | 0.558
343.15 K, x1 = 0.2006 | 2.74 | 1.718
343.15 K, x1 = 0.4007 | 2.17 | 3.53
343.15 K, x1 = 0.6002 | 1.72 | 4.94
343.15 K, x1 = 0.6999 | 1.54 | 6.16
343.15 K, x1 = 0.8001 | 1.37 | 7.56
343.15 K, x1 = 0.9003 | 1.2 | 10.95
343.15 K, x1 = 1 | 1.05 | 14.91
348.15 K, x1 = 0.1004 | 2.56 | 0.458
348.15 K, x1 = 0.2006 | 2.91 | 1.517
348.15 K, x1 = 0.3003 | 2.63 | 2.346
348.15 K, x1 = 0.4998 | 2.12 | 3.777
348.15 K, x1 = 0.6002 | 1.88 | 4.265
348.15 K, x1 = 0.8001 | 1.5 | 6.13
348.15 K, x1 = 1 | 1.18 | 12.3
353.15 K, x1 = 0.1004 | 2.7 | 0.392
353.15 K, x1 = 0.4007 | 2.55 | 2.74
353.15 K, x1 = 0.4998 | 2.3 | 3.376
353.15 K, x1 = 0.6999 | 1.84 | 4.04
353.15 K, x1 = 0.8001 | 1.64 | 4.81
353.15 K, x1 = 1 | 1.31 | 10.28
